Laboratory results published in patent US4414204A, “Antibiotic preparations having increased effectiveness, processes for their manufacture and method for increasing the antibiotic action of antibiotics” (Ciba-Geigy Corporation, priority 1979, dated 1983).

Assays:
Format in all cases: in vivo
Klebsiella pneumoniae = assay: Mice infected i.p. with Klebsiella pneumoniae, treated s.c. with cefroxadin alone or with muramylpeptide; survival, ED50; settings: 2×10^4 cfu Klebsiella pneumoniae i.p., cefroxadin twice s.c. (0 and 3 h after infection) with 10 mg/kg N-acetylmuramyl-L-alanyl-D-isoglutaminyl-L-alanyl-2-(1',2'-dipalmitoyl-sn-glycero-3'-hydroxyphosphoryloxy)-ethylamide, survivors counted 4 and 10 days after infection
Method: (§1) For this purpose, animals are infected with a lethal or sub-lethal dose of a pathogenic micro-organism and then the specified novel preparation of the individual doses of muramylpeptide and antibiotic are administered. The action is determined as ED50, that is to say, the dose at which 50% of the animals survive.
(§2) Laboratory white mice are infected i.p. with 2×10^4 cfu (colony forming units) of Klebsiella pneumoniae, 0.1×10^4 cfu of Pasteurella multocida or 40×10^4 cfu of Salmonella typhimurium in salt solution so that 90 to 100% of the untreated control animals die within 48 hours. Immediately after infection and 3 hours after infection, groups of 10 mice are treated with cefroxadin, both alone (without muramylpeptide) and in combination with 10 mg/kg of N-acetylmuramyl-L-alanyl-D-isoglutaminyl-L-alanyl-2-(1',2'-dipalmitoyl-sn- glycero-3'-hydroxyphosphoryloxy)-ethylamide, these being administered twice subcutaneously in the form of aqueous solutions or suspensions. A count of the surviving animals was made 4 and 10 days after infection.

Pasteurella multocida = assay: Mice infected i.p. with Pasteurella multocida, treated s.c. with cefroxadin alone or with muramylpeptide; survival, ED50; settings: 0.1×10^4 cfu Pasteurella multocida i.p., cefroxadin twice s.c. (0 and 3 h after infection) with 10 mg/kg N-acetylmuramyl-L-alanyl-D-isoglutaminyl-L-alanyl-2-(1',2'-dipalmitoyl-sn-glycero-3'-hydroxyphosphoryloxy)-ethylamide, survivors counted 4 and 10 days after infection
Method: as §1, §2

Salmonella typhimurium = assay: Mice infected i.p. with Salmonella typhimurium, treated s.c. with cefroxadin alone or with muramylpeptide; survival, ED50; settings: 40×10^4 cfu Salmonella typhimurium i.p., cefroxadin twice s.c. (0 and 3 h after infection) with 10 mg/kg N-acetylmuramyl-L-alanyl-D-isoglutaminyl-L-alanyl-2-(1',2'-dipalmitoyl-sn-glycero-3'-hydroxyphosphoryloxy)-ethylamide, survivors counted 4 and 10 days after infection
Method: as §1, §2

Measured: ED50 values for the antibiotic in combination with the muramylpeptide versus alone

COC1=C(C(=O)O)N2C(=O)[C@@H](NC(=O)[C@H](N)C3=CCC=CC3)[C@H]2SC1 [cefroxadin, 7β-[D-2-amino-2-(1,4-cyclohexadienyl)-acetamido]-3-methoxy-3-cephem-4-carboxylic acid]
lower by a multiple: all assays above
